Results: ChEMBL document CHEMBL1201862, “PubChem BioAssay data set” (2004)
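1) Cells in 96-well plates. 2) Compound, 48 h, 5 concentrations. 3) Linear interpolation between surrounding doses. 4) Unreached endpoint = highest concentration. GI50: concentration for 50% inhibition of growth.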 The source made the active and inactive calls. Rule as the data show it: active = GI50 up to about 1.1 µM and inactive = higher.

Key:
Assay in all cases: NCI anticancer screen, dose series, 48 h
786-0 = system: 786-0
A498 = system: A498
A549 = system: A549
ACHN = system: ACHN
BT-549 = system: BT-549
CAKI-1 = system: CAKI-1
CCRF-CEM = system: CCRF-CEM
COLO 205 = system: COLO 205
DU-145 = system: DU-145
EKVX = system: EKVX
HCC 2998 = system: HCC 2998
HCT-116 = system: HCT-116
HCT-15 = system: HCT-15
HL-60 = system: HL-60
HOP-62 = system: HOP-62
HT-29 = system: HT-29
Hs-578T = system: Hs-578T
IGROV-1 = system: IGROV-1
K562 = system: K562
KM12 = system: KM12
LOX IMVI = system: LOX IMVI
M14 = system: M14
MDA-MB-231 = system: MDA-MB-231
MDA-MB-435 = system: MDA-MB-435
MDA-N = system: MDA-N
MOLT-4 = system: MOLT-4
Malme-3M = system: Malme-3M
NCI-H226 = system: NCI-H226
NCI-H23 = system: NCI-H23
NCI-H460 = system: NCI-H460
NCI-H522 = system: NCI-H522
NCI/ADR-RES = system: NCI/ADR-RES
OVCAR-3 = system: OVCAR-3
OVCAR-4 = system: OVCAR-4
OVCAR-5 = system: OVCAR-5
OVCAR-8 = system: OVCAR-8
PC-3 = system: PC-3
RPMI-8226 = system: RPMI-8226
RXF 393 = system: RXF 393
SF-268 = system: SF-268
SF-295 = system: SF-295
SF-539 = system: SF-539
SK-MEL-28 = system: SK-MEL-28
SK-MEL-2 = system: SK-MEL-2
SK-MEL-5 = system: SK-MEL-5
SK-OV-3 = system: SK-OV-3
SN12C = system: SN12C
SNB-19 = system: SNB-19
SNB-75 = system: SNB-75
SW-620 = system: SW-620
T47D = system: T47D
TK-10 = system: TK-10
U-251 = system: U-251
UACC-257 = system: UACC-257
UACC-62 = system: UACC-62
UO-31 = system: UO-31
HOP-92 = system: HOP-92
SR = system: SR

CNNC1=NS(=O)(=O)c2cc(C)c(Cl)cc2S1
GI50 (786-0): > 10 µM (inactive) | GI50 (A498): > 10 µM (inactive) | GI50 (A549): > 10 µM (inactive) | GI50 (ACHN): > 10 µM (inactive) | GI50 (BT-549): > 10 µM (inactive) | GI50 (CAKI-1): > 10 µM (inactive) | GI50 (CCRF-CEM): > 10 µM (inactive) | GI50 (COLO 205): > 10 µM (inactive) | GI50 (DU-145): > 10 µM (inactive) | GI50 (EKVX): > 10 µM (inactive) | GI50 (HCC 2998): > 10 µM (inactive) | GI50 (HCT-116): > 10 µM (inactive) | GI50 (HCT-15): > 10 µM | GI50 (HL-60): > 10 µM (inactive) | GI50 (HOP-62): > 10 µM (inactive) | GI50 (HT-29): > 10 µM (inactive) | GI50 (Hs-578T): > 10 µM (inactive) | GI50 (IGROV-1): > 10 µM (inactive) | GI50 (K562): > 10 µM (inactive) | GI50 (KM12): > 10 µM (inactive) | GI50 (LOX IMVI): > 10 µM (inactive) | GI50 (M14): > 10 µM (inactive) | GI50 (MDA-MB-231): > 10 µM (inactive) | GI50 (MDA-MB-435): > 10 µM (inactive) | GI50 (MDA-N): > 10 µM (inactive) | GI50 (MOLT-4): > 10 µM (inactive) | GI50 (Malme-3M): > 10 µM (inactive) | GI50 (NCI-H226): > 10 µM (inactive) | GI50 (NCI-H23): > 10 µM (inactive) | GI50 (NCI-H460): > 10 µM (inactive) | GI50 (NCI-H522): > 10 µM (inactive) | GI50 (NCI/ADR-RES): > 10 µM (inactive) | GI50 (OVCAR-3): > 10 µM (inactive) | GI50 (OVCAR-4): > 10 µM (inactive) | GI50 (OVCAR-5): > 10 µM (inactive) | GI50 (OVCAR-8): > 10 µM (inactive) | GI50 (PC-3): > 10 µM (inactive) | GI50 (RPMI-8226): > 10 µM (inactive) | GI50 (RXF 393): > 10 µM (inactive) | GI50 (SF-268): > 10 µM (inactive) | GI50 (SF-295): > 10 µM (inactive) | GI50 (SF-539): > 10 µM (inactive) | GI50 (SK-MEL-28): > 10 µM (inactive) | GI50 (SK-MEL-2): > 10 µM (inactive) | GI50 (SK-MEL-5): > 10 µM (inactive) | GI50 (SK-OV-3): > 10 µM (inactive) | GI50 (SN12C): > 10 µM (inactive) | GI50 (SNB-19): > 10 µM (inactive) | GI50 (SNB-75): > 10 µM (inactive) | GI50 (SW-620): > 10 µM (inactive) | GI50 (T47D): > 10 µM (inactive) | GI50 (TK-10): > 10 µM (inactive) | GI50 (U-251): > 10 µM (inactive) | GI50 (UACC-257): > 10 µM (inactive) | GI50 (UACC-62): > 10 µM (inactive) | GI50 (UO-31): 0.0344 µM (active)

c1ccc([B-]2(c3ccccc3)NCCCO2)cc1
GI50 (786-0): 56.9 µM (inactive) | GI50 (A498): 47.9 µM (inactive) | GI50 (A549): 58.6 µM (inactive) | GI50 (ACHN): 35.4 µM (inactive) | GI50 (BT-549): 31.4 µM (inactive) | GI50 (CAKI-1): 40.6 µM (inactive) | GI50 (CCRF-CEM): 34.5 µM (inactive) | GI50 (COLO 205): 24.9 µM (inactive) | GI50 (DU-145): 72.3 µM (inactive) | GI50 (EKVX): 97.5 µM (inactive) | GI50 (HCT-116): 35.8 µM (inactive) | GI50 (HCT-15): 31.8 µM | GI50 (HL-60): > 100 µM (inactive) | GI50 (HOP-62): > 100 µM (inactive) | GI50 (HOP-92): 20.3 µM (inactive) | GI50 (HT-29): > 100 µM (inactive) | GI50 (Hs-578T): 32.1 µM (inactive) | GI50 (IGROV-1): 55 µM (inactive) | GI50 (K562): 97.7 µM (inactive) | GI50 (KM12): 91.2 µM (inactive) | GI50 (LOX IMVI): 59.4 µM (inactive) | GI50 (M14): 31.3 µM (inactive) | GI50 (MDA-MB-231): 42.5 µM (inactive) | GI50 (MDA-MB-435): 46.3 µM (inactive) | GI50 (MDA-N): 42.7 µM (inactive) | GI50 (MOLT-4): 32.7 µM (inactive) | GI50 (Malme-3M): 48.9 µM (inactive) | GI50 (NCI-H226): 31 µM (inactive) | GI50 (NCI-H23): 47 µM (inactive) | GI50 (NCI-H460): 72.8 µM (inactive) | GI50 (NCI-H522): 33.4 µM (inactive) | GI50 (NCI/ADR-RES): 64.1 µM (inactive) | GI50 (OVCAR-3): 35.1 µM (inactive) | GI50 (OVCAR-4): 67.9 µM (inactive) | GI50 (OVCAR-5): > 100 µM (inactive) | GI50 (OVCAR-8): 70.5 µM (inactive) | GI50 (PC-3): 20.9 µM (inactive) | GI50 (RPMI-8226): 37.2 µM (inactive) | GI50 (RXF 393): 28.8 µM (inactive) | GI50 (SF-268): > 100 µM (inactive) | GI50 (SF-295): 51.3 µM (inactive) | GI50 (SF-539): 33.3 µM (inactive) | GI50 (SK-MEL-28): 56.8 µM (inactive) | GI50 (SK-MEL-2): 89.9 µM (inactive) | GI50 (SK-MEL-5): 24.8 µM (inactive) | GI50 (SK-OV-3): 85.7 µM (inactive) | GI50 (SN12C): 70.8 µM (inactive) | GI50 (SNB-19): > 100 µM (inactive) | GI50 (SR): 44.9 µM (inactive) | GI50 (SW-620): 49.5 µM (inactive) | GI50 (T47D): 34.9 µM (inactive) | GI50 (TK-10): 43.2 µM (inactive) | GI50 (U-251): > 100 µM (inactive) | GI50 (UACC-257): 49.9 µM (inactive) | GI50 (UACC-62): 45.4 µM (inactive) | GI50 (UO-31): 20 µM (inactive)
